According to PubChem BioAssay AID1918945 (Molecular Pharmacology Branch, DTP, NCI, 2023):
“And” between values parts separate entries of the source, which are not always exact repeats. Equal entries are not always repeated.

Tested on: 883617-216-R-J1-PDC complex spheroid viability
Assay: Anticancer human tumor 883617-216-R-J1-PDC patient-derived bladder carcinoma cell line growth inhibition
Details: for viability, T/C: stronger effect = lower value
In short: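 Multicellular complex spheroids of tumor cells with human endothelial cells (HUVEC) and mesenchymal stem cells; the LSD1 inhibitor iadademstat was combined with standard-of-care or investigational agents. Top concentration at or near clinical Cmax, half-log dilutions; final DMSO ≤0.25%.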

[1] = curve of first compound, second compound 0.1 µM
[2] = curve of first compound, second compound 0.316 µM
[3] = curve of first compound, second compound 1 µM
[4] = curve of first compound, second compound 3.16 µM
[5] = curve of first compound, second compound 10 µM
[6] = second compound 0.1 µM, first compound 0.0316 µM
[7] = second compound 0.1 µM, first compound 0.1 µM
[8] = second compound 0.1 µM, first compound 0.316 µM
[9] = second compound 0.1 µM, first compound 1 µM
[10] = second compound 0.316 µM, first compound 0.0316 µM
[11] = second compound 0.316 µM, first compound 0.1 µM
[12] = second compound 0.316 µM, first compound 0.316 µM
[13] = second compound 0.316 µM, first compound 1 µM
[14] = second compound 1 µM, first compound 0.0316 µM
[15] = second compound 1 µM, first compound 0.1 µM
[16] = second compound 1 µM, first compound 0.316 µM
[17] = second compound 1 µM, first compound 1 µM
[18] = second compound 3.16 µM, first compound 0.0316 µM
[19] = second compound 3.16 µM, first compound 0.1 µM
[20] = second compound 3.16 µM, first compound 0.316 µM
[21] = second compound 3.16 µM, first compound 1 µM
[22] = second compound 10 µM, first compound 0.0316 µM
[23] = second compound 10 µM, first compound 0.1 µM
[24] = second compound 10 µM, first compound 0.316 µM
[25] = second compound 10 µM, first compound 1 µM
[26] = second compound 0.1 µM, first compound 3.16 µM
[27] = second compound 0.1 µM, first compound 10 µM
[28] = second compound 0.316 µM, first compound 3.16 µM
[29] = second compound 0.316 µM, first compound 10 µM
[30] = second compound 1 µM, first compound 3.16 µM
[31] = second compound 1 µM, first compound 10 µM
[32] = second compound 3.16 µM, first compound 3.16 µM
[33] = second compound 3.16 µM, first compound 10 µM
[34] = second compound 10 µM, first compound 3.16 µM
[35] = second compound 10 µM, first compound 10 µM
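Further: exposure lasted seven days after three days of spheroid growth.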
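Wherever viability, T/C is given: 100% = DMSO vehicle control luminescence.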

`COc1cc(Nc2ncc3c(n2)-c2ccc(Cl)cc2C(c2c(F)cccc2OC)=NC3)ccc1C(=O)O` + NC1CC1c1ccc(-c2cccc(O)c2)cc1 was tested, and the IC50 [1] was 0.0304 µM, the IC50 [2] was 0.0305 µM and the IC50 [3] was 0.0206 µM. The IC50 [4] was 0.0188 µM, the IC50 [5] was 0.0169 µM and the viability, T/C (second compound 0.1 µM, first compound 0.00316 µM) was 92.4%. The viability, T/C (second compound 0.1 µM, first compound 0.01 µM) was 76.6%, the viability, T/C [6] was 48.8% and the viability, T/C [7] was 37.8%. It also gave a viability, T/C [8] of 37.3%, a viability, T/C [9] of 33.4% and a viability, T/C (second compound 0.316 µM, first compound 0.00316 µM) of 109%. The viability, T/C (second compound 0.316 µM, first compound 0.01 µM) was 67.8%, the viability, T/C [10] was 52.6% and the viability, T/C [11] was 37.6%. The viability, T/C [12] was 36.7%, the viability, T/C [13] was 36% and the viability, T/C (second compound 1 µM, first compound 0.00316 µM) was 106%. It also gave a viability, T/C (second compound 1 µM, first compound 0.01 µM) of 60.9%, a viability, T/C [14] of 43.2% and a viability, T/C [15] of 39.7%. For the same compound, the viability, T/C [16] was 34.5%, the viability, T/C [17] was 36.5% and the viability, T/C (second compound 3.16 µM, first compound 0.00316 µM) was 81.8%. The viability, T/C (second compound 3.16 µM, first compound 0.01 µM) was 63.1%, the viability, T/C [18] was 38.8% and the viability, T/C [19] was 37.2%. For the same compound, the viability, T/C [20] was 36.6%, the viability, T/C [21] was 31.5% and the viability, T/C (second compound 10 µM, first compound 0.00316 µM) was 72.7%. The viability, T/C (second compound 10 µM, first compound 0.01 µM) was 54.7%, the viability, T/C [22] was 46.3% and the viability, T/C [23] was 31.6%. The viability, T/C [24] was 35.1% and the viability, T/C [25] was 32.6%.
`NC1CCC(NC2CC2c2ccccc2)CC1` (stereo unspecified) was tested, and the viability, T/C (compound 0.1 µM) was 103% [middle of 25 runs], the viability, T/C (compound 0.316 µM) was 107% and 112% and the viability, T/C (compound 1 µM) was 104% [middle of 25 runs]. The viability, T/C (compound 3.16 µM) was 105% [middle of 25 runs], the viability, T/C (compound 10 µM) was 107% [middle of 23 runs] and the IC50 (compound alone, run of 11/29/2021) was > 10 µM.
For `CC1(C)CCC(CN2CCN(c3ccc(C(=O)NS(=O)(=O)c4ccc(NCC5CCOCC5)c([N+](=O)[O-])c4)c(Oc4cnc5[nH]ccc5c4)c3)CC2)=C(c2ccc(Cl)cc2)C1` + NC1CCC(NC2CC2c2ccccc2)CC1, the IC50 [1] was 7.33 µM, the IC50 [2] was 7.54 µM and the IC50 [3] was 7.34 µM. For the same compound, the IC50 [4] was 7.34 µM, the IC50 [5] was 7.1 µM and the viability, T/C [6] was 108%. The viability, T/C [7] was 114%, the viability, T/C [8] was 109% and the viability, T/C [9] was 104%. The viability, T/C [26] was 109%, the viability, T/C [27] was 28.3% and the viability, T/C [10] was 111%. For the same compound, the viability, T/C [11] was 106%, the viability, T/C [12] was 122% and the viability, T/C [13] was 109%. The viability, T/C [28] was 125%, the viability, T/C [29] was 28.9% and the viability, T/C [14] was 105%. The viability, T/C [15] was 110%, the viability, T/C [16] was 118% and the viability, T/C [17] was 110%. For the same compound, the viability, T/C [30] was 113%, the viability, T/C [31] was 27.4% and the viability, T/C [18] was 104%. For the same compound, the viability, T/C [19] was 114%, the viability, T/C [20] was 110% and the viability, T/C [21] was 114%. For the same compound, the viability, T/C [32] was 120%, the viability, T/C [33] was 27% and the viability, T/C [22] was 107%. The viability, T/C [23] was 102%, the viability, T/C [24] was 108% and the viability, T/C [25] was 110%. The viability, T/C [34] was 118% and the viability, T/C [35] was 24.8%.
`O=C(c1cc(Cc2n[nH]c(=O)c3ccccc23)ccc1F)N1CCN(C(=O)C2CC2)CC1` + NC1CCC(NC2CC2c2ccccc2)CC1 showed an IC50 [1] of 2.73 µM, an IC50 [2] of 8.24 µM and an IC50 [3] of 3.58 µM. For the same compound, the IC50 [4] was 3.79 µM, the IC50 [5] was 8.94 µM and the viability, T/C [6] was 100%. For the same compound, the viability, T/C [7] was 93%, the viability, T/C [8] was 93.3% and the viability, T/C [9] was 65.5%. The viability, T/C [26] was 49%, the viability, T/C [27] was 44.4% and the viability, T/C [10] was 107%. For the same compound, the viability, T/C [11] was 102%, the viability, T/C [12] was 99.7% and the viability, T/C [13] was 76.2%. The viability, T/C [28] was 60.1%, the viability, T/C [29] was 47.5% and the viability, T/C [14] was 90.8%. For the same compound, the viability, T/C [15] was 89.9%, the viability, T/C [16] was 90% and the viability, T/C [17] was 76.1%. It also gave a viability, T/C [30] of 50.8%, a viability, T/C [31] of 44.5% and a viability, T/C [18] of 94.1%. It also gave a viability, T/C [19] of 98.5%, a viability, T/C [20] of 88.6% and a viability, T/C [21] of 73.3%. The viability, T/C [32] was 51.3%, the viability, T/C [33] was 42.5% and the viability, T/C [22] was 104%. For the same compound, the viability, T/C [23] was 96.3%, the viability, T/C [24] was 89.7% and the viability, T/C [25] was 75.7%. The viability, T/C [34] was 58.1% and the viability, T/C [35] was 49.5%.
`Nc1ccn(C2OC(CO)C(O)C2(F)F)c(=O)n1` (stereo unspecified) + NC1CC1c1ccc(-c2cccc(O)c2)cc1 was tested, and the IC50 [1] was < 0.000949 µM, the IC50 [2] was < 0.000949 µM and the IC50 [3] was < 0.000949 µM. For the same compound, the IC50 [4] was < 0.000949 µM, the IC50 [5] was < 0.000949 µM and the viability, T/C (second compound 0.1 µM, first compound 0.000949 µM) was 19.4%. It also gave a viability, T/C (second compound 0.1 µM, first compound 0.003 µM) of 23.2%, a viability, T/C (second compound 0.1 µM, first compound 0.00949 µM) of 21.9% and a viability, T/C (second compound 0.1 µM, first compound 0.03 µM) of 22.2%. It also gave a viability, T/C (second compound 0.1 µM, first compound 0.0949 µM) of 23.6%, a viability, T/C (second compound 0.1 µM, first compound 0.3 µM) of 24.9% and a viability, T/C (second compound 0.316 µM, first compound 0.000949 µM) of 19.8%. It also gave a viability, T/C (second compound 0.316 µM, first compound 0.003 µM) of 20.6%, a viability, T/C (second compound 0.316 µM, first compound 0.00949 µM) of 22.8% and a viability, T/C (second compound 0.316 µM, first compound 0.03 µM) of 21%. It also gave a viability, T/C (second compound 0.316 µM, first compound 0.0949 µM) of 23.2%, a viability, T/C (second compound 0.316 µM, first compound 0.3 µM) of 23% and a viability, T/C (second compound 1 µM, first compound 0.000949 µM) of 22%. For the same compound, the viability, T/C (second compound 1 µM, first compound 0.003 µM) was 20.8%, the viability, T/C (second compound 1 µM, first compound 0.00949 µM) was 23.4% and the viability, T/C (second compound 1 µM, first compound 0.03 µM) was 21.5%. The viability, T/C (second compound 1 µM, first compound 0.0949 µM) was 21.1%, the viability, T/C (second compound 1 µM, first compound 0.3 µM) was 24.4% and the viability, T/C (second compound 3.16 µM, first compound 0.000949 µM) was 21.9%. For the same compound, the viability, T/C (second compound 3.16 µM, first compound 0.003 µM) was 20.8%, the viability, T/C (second compound 3.16 µM, first compound 0.00949 µM) was 20.6% and the viability, T/C (second compound 3.16 µM, first compound 0.03 µM) was 25.6%. The viability, T/C (second compound 3.16 µM, first compound 0.0949 µM) was 21%, the viability, T/C (second compound 3.16 µM, first compound 0.3 µM) was 20.9% and the viability, T/C (second compound 10 µM, first compound 0.000949 µM) was 29.5%. It also gave a viability, T/C (second compound 10 µM, first compound 0.003 µM) of 27.2%, a viability, T/C (second compound 10 µM, first compound 0.00949 µM) of 24.9% and a viability, T/C (second compound 10 µM, first compound 0.03 µM) of 24.3%. For the same compound, the viability, T/C (second compound 10 µM, first compound 0.0949 µM) was 23.3% and the viability, T/C (second compound 10 µM, first compound 0.3 µM) was 21.6%.
With `CC(C)c1c(-c2ccccc2)nc2c(C#N)c[nH]n2c1=O` + NC1CCC(NC2CC2c2ccccc2)CC1 the IC50 [1] was > 10 µM, the IC50 [2] was > 10 µM and the IC50 [3] was > 10 µM. The IC50 [4] was > 10 µM, the IC50 [5] was > 10 µM and the viability, T/C [6] was 106%. The viability, T/C [7] was 102%, the viability, T/C [8] was 101% and the viability, T/C [9] was 103%. It also gave a viability, T/C [26] of 97.5%, a viability, T/C [27] of 93.8% and a viability, T/C [10] of 107%. For the same compound, the viability, T/C [11] was 109%, the viability, T/C [12] was 108% and the viability, T/C [13] was 105%. The viability, T/C [28] was 103%, the viability, T/C [29] was 95% and the viability, T/C [14] was 97.3%. The viability, T/C [15] was 91.8%, the viability, T/C [16] was 101% and the viability, T/C [17] was 95%. For the same compound, the viability, T/C [30] was 93.6%, the viability, T/C [31] was 86% and the viability, T/C [18] was 104%. It also gave a viability, T/C [19] of 99.7%, a viability, T/C [20] of 97.8% and a viability, T/C [21] of 98.2%. It also gave a viability, T/C [32] of 91.2%, a viability, T/C [33] of 89.9% and a viability, T/C [22] of 103%. It also gave a viability, T/C [23] of 106%, a viability, T/C [24] of 112% and a viability, T/C [25] of 98.2%. For the same compound, the viability, T/C [34] was 95.2% and the viability, T/C [35] was 86.1%.
